From the NIST ThermoML archive (doi:10.1021/je201116t)
Numbers after ± are expanded uncertainties.

Assay: xn = mol fraction of the nth substance listed
Conditions: 101 kPa, Liquid; for viscosity: Capillary tube (Ostwald / Ubbelohde) method

CCC(=O)[O-].CC[NH+]1CCNCC1 [N-ethylpiperazinium propionate] + CCO
Conditions	mass density, 298.15 K [kg/m3]	mass density, 303.15 K [kg/m3]	mass density, 308.15 K [kg/m3]	mass density, 313.15 K [kg/m3]	viscosity, 298.15 K [mPa·s]	viscosity, 303.15 K [mPa·s]	viscosity, 308.15 K [mPa·s]	viscosity, 313.15 K [mPa·s]
x2 = 0	1008.36 ± 1.2	1004.38 ± 1.2	1000.33 ± 1.2	996.237 ± 1.2	243.49 ± 7.6	164.81 ± 4.6	113.44 ± 2.7	80.93 ± 1.8
x2 = 0.0971	1002.79 ± 1.1	998.809 ± 1.1	994.769 ± 1.1	990.695 ± 1.1	170.13 ± 4.6	119.44 ± 2.9	85.41 ± 1.8	61.23 ± 1.2
x2 = 0.2017	995.311 ± 0.94	991.322 ± 0.95	987.293 ± 0.97	983.232 ± 0.98	109.9 ± 2.4	82.6 ± 1.6	60.3 ± 1.1	44.79 ± 0.84
x2 = 0.3033	986.576 ± 0.86	982.598 ± 0.88	978.579 ± 0.89	974.526 ± 0.91	75.85 ± 1.4	55.8 ± 0.98	42.03 ± 0.72	32.1 ± 0.55
x2 = 0.3983	976.628 ± 0.81	972.658 ± 0.83	968.645 ± 0.85	964.592 ± 0.86	48.89 ± 0.86	37.01 ± 0.62	28.65 ± 0.46	22.63 ± 0.35
x2 = 0.5001	963.41 ± 0.79	959.429 ± 0.81	955.408 ± 0.82	951.35 ± 0.84	29.59 ± 0.49	23.34 ± 0.36	18.57 ± 0.28	15.06 ± 0.22
x2 = 0.6006	946.741 ± 0.79	942.745 ± 0.81	938.702 ± 0.83	934.623 ± 0.85	17.18 ± 0.28	14 ± 0.2	11.54 ± 0.16	9.602 ± 0.13
x2 = 0.6994	925.277 ± 0.83	921.231 ± 0.85	917.149 ± 0.87	913.029 ± 0.89	9.403 ± 0.15	7.923 ± 0.11	6.734 ± 0.09	5.766 ± 0.071
x2 = 0.8001	895.282 ± 0.93	891.163 ± 0.95	887.012 ± 0.97	882.818 ± 0.99	4.925 ± 0.077	4.279 ± 0.055	3.74 ± 0.048	3.286 ± 0.039
x2 = 0.8998	852.465 ± 1.1	848.243 ± 1.1	843.982 ± 1.1	839.679 ± 1.2	2.437 ± 0.038	2.175 ± 0.027	1.947 ± 0.024	1.749 ± 0.02
